In the NIST ThermoML archive (doi:10.1021/je4003256):
± gives the expanded uncertainty stated by the source.

Conditions: 101.33 kPa, Liquid; for speed of sound: Pulse-echo method; for mass density: Vibrating tube method

C=CCc1ccc(O)c(OC)c1 [2-hydroxy-5-allylanisole]
Conditions	mass density [kg/m3]	speed of sound [m/s]
288.15 K	1070.9 ± 0.29	1515.3 ± 1.3
293.15 K	1066.48 ± 0.28	1497 ± 1.3
298.15 K	1062.06 ± 0.28	1478.7 ± 1.3
303.15 K	1057.64 ± 0.28	1460.3 ± 1.3
308.15 K	1053.21 ± 0.27	1442.2 ± 1.3
313.15 K	1048.78 ± 0.27	1424.1 ± 1.3
318.15 K	1044.35 ± 0.27	1406.1 ± 1.2
323.15 K	1039.92 ± 0.26	1388.2 ± 1.2
328.15 K	1035.48 ± 0.26	1370.5 ± 1.2
333.15 K	1031.04 ± 0.25	1352.8 ± 1.2
338.15 K	1026.6 ± 0.25	1335.2 ± 1.2
343.15 K	1022.15 ± 0.25	1317.8 ± 1.2

COc1ccccc1O [2-methoxyphenol]
Conditions	mass density [kg/m3]	speed of sound [m/s]
288.15 K	1138.64 ± 0.34	1567.6 ± 1.3
293.15 K	1133.81 ± 0.34	1548.3 ± 1.3
298.15 K	1128.96 ± 0.34	1528.7 ± 1.3
303.15 K	1124.11 ± 0.33	1509.3 ± 1.3
308.15 K	1119.25 ± 0.33	1490 ± 1.3
313.15 K	1114.38 ± 0.32	1470.7 ± 1.3
318.15 K	1109.51 ± 0.32	1451.5 ± 1.3
323.15 K	1104.63 ± 0.32	1432.4 ± 1.3
328.15 K	1099.74 ± 0.31	1413.5 ± 1.3
333.15 K	1094.84 ± 0.31	1394.6 ± 1.2
338.15 K	1089.94 ± 0.3	1375.8 ± 1.2
343.15 K	1085.02 ± 0.3	1357.1 ± 1.2

Cc1ccccc1O [2-methylphenol]
Conditions	mass density [kg/m3]	speed of sound [m/s]
293.15 K	1045.77 ± 0.27	1522.6 ± 1.3
298.15 K	1041.41 ± 0.26	1505.5 ± 1.3
303.15 K	1037.05 ± 0.26	1488.2 ± 1.3
308.15 K	1032.64 ± 0.26	1470.2 ± 1.3
313.15 K	1028.25 ± 0.25	1452.7 ± 1.3
318.15 K	1023.83 ± 0.25	1435.2 ± 1.3
323.15 K	1019.39 ± 0.24	1417.7 ± 1.3
328.15 K	1014.93 ± 0.24	1400.2 ± 1.2
333.15 K	1010.46 ± 0.24	1382.8 ± 1.2
338.15 K	1005.97 ± 0.23	1365.3 ± 1.2
343.15 K	1001.46 ± 0.23	1347.7 ± 1.2

Cc1cccc(O)c1 [3-methylphenol]
Conditions	mass density [kg/m3]	speed of sound [m/s]
293.15 K	1033.84 ± 0.26	1497.9 ± 1.3
298.15 K	1029.91 ± 0.25	1481.9 ± 1.3
303.15 K	1025.96 ± 0.25	1466.2 ± 1.3
308.15 K	1021.99 ± 0.25	1450.5 ± 1.3
313.15 K	1018 ± 0.24	1435 ± 1.3
318.15 K	1013.99 ± 0.24	1419.5 ± 1.3
323.15 K	1009.97 ± 0.24	1403.9 ± 1.2
328.15 K	1005.91 ± 0.23	1388.4 ± 1.2
333.15 K	1001.84 ± 0.23	1372.9 ± 1.2
338.15 K	997.743 ± 0.23	1357.3 ± 1.2
343.15 K	993.626 ± 0.23	1341.8 ± 1.2

Cc1ccc(O)cc1 [4-methylphenol]
Conditions	mass density [kg/m3]	speed of sound [m/s]
293.15 K	1034.09 ± 0.91	1502.9 ± 2.1
298.15 K	1030.25 ± 0.9	1487.2 ± 2.1
303.15 K	1026.39 ± 0.89	1471.4 ± 2.1
308.15 K	1022.5 ± 0.88	1455.6 ± 2.1
313.15 K	1018.59 ± 0.88	1440 ± 2.1
318.15 K	1014.66 ± 0.87	1424.3 ± 2.1
323.15 K	1010.7 ± 0.86	1408.7 ± 2.1
328.15 K	1006.72 ± 0.85	1393 ± 2.1
333.15 K	1002.7 ± 0.84	1377.4 ± 2.1
338.15 K	998.659 ± 0.84	1361.8 ± 2.1
343.15 K	994.587 ± 0.83	1346.2 ± 2.1

COC(=O)c1ccccc1O [methyl 2-hydroxybenzoate]
Conditions	mass density [kg/m3]	speed of sound [m/s]
288.15 K	1189.32 ± 0.39	1447.6 ± 1.3
293.15 K	1184.33 ± 0.38	1429.1 ± 1.3
298.15 K	1179.34 ± 0.38	1410.6 ± 1.3
303.15 K	1174.35 ± 0.37	1392.3 ± 1.2
308.15 K	1169.37 ± 0.37	1374 ± 1.2
313.15 K	1164.38 ± 0.36	1356 ± 1.2
318.15 K	1159.4 ± 0.36	1338.1 ± 1.2
323.15 K	1154.42 ± 0.36	1320.4 ± 1.2
328.15 K	1149.45 ± 0.35	1302.8 ± 1.2
333.15 K	1144.46 ± 0.35	1285.4 ± 1.2
338.15 K	1139.47 ± 0.34	1268.1 ± 1.2
343.15 K	1134.49 ± 0.34	1250.9 ± 1.2

Oc1ccccc1 [phenol]
Conditions	mass density [kg/m3]	speed of sound [m/s]
318.15 K	1054.1 ± 0.27	1437.2 ± 1.3
323.15 K	1049.81 ± 0.27	1422.1 ± 1.3
328.15 K	1045.5 ± 0.27	1406.8 ± 1.2
333.15 K	1041.16 ± 0.26	1391.4 ± 1.2
338.15 K	1036.79 ± 0.26	1376.1 ± 1.2
343.15 K	1032.4 ± 0.26	1360.6 ± 1.2
